Test results taken from patent US6448034B1, “Production of variant nisin” (priority 1994, dated 2002).
Converted amounts (≈) assume the structure as drawn.

Experiments:
[1] = test system: Lactobacillus helveticus CH-1; assay: Plate diffusion bioassay of cell-free extracts / culture supernatants; format: cell-based; settings: for Activity (% of wt): antimicrobial activity in culture supernatants of gene-replaced strains, plate diffusion bioassays; for nisin activity (% of wild type), gene replacement: functional nisA gene incorporated in the chromosome of FI7990 in place of nisA deletion
Method: 150 μl samples of cell free extracts from strains: 4, FI5876; 5, FI7990; 6, FI8070; 7, FI8198; 8, FI8199 were loaded into wells bored in MRS agar seeded with the indicator strains Lactobacillus helveticus CH-1. Plates were incubated overnight at 42° C. Standards included on the assay plate are: 1,50; 2,100; 3,200; 9,300; 10,400 U/ml.
Nisin activity in Lactococcal strains was assayed by both deferred and direct means. Plate diffusion bioassays were performed as previously described (Dodd et al (1992) Appl. Environ. Microbiol. 58, 3683-3693. Colonies growing on the surface of a GM17 plate were directly assayed by inverting over chloroform for 12 minutes and overlaying with agar seeded with the nisin sensitive L. lactis strain MG1614. Plates were incubated overnight and zone sizes around colonies compared with those of controls. Nisin immunity was determined by streaking cultures on a series of GM17 agar plates containing an increasing concentration of nisin and assessing the degree of growth at the different nisin levels. Control cultures (FI5876, positive) and MG1614 (negative) were included on each plate.
This corresponds to an increase of approximately 50% of nisin A levels, under the conditions used here (Table 1). This higher level of production was not found in the extracts of FI8199, producing the double mutant nisin A/Dha5A,Dha33A. […] In all cases the yield for a particular nisin variant was higher when using this gene replacement strategy than when the equivalent plasmid-encoded gene was employed in a plasmid complementation system (Table 3, Dodd et al (1992) (1993) supra).

[2] = test system: FI7847 [nisA-(fs)]; assay: Induction by nisin / nisin variants as inducing agent; format: cell-based, L. lactis; set-up: Induction: unit not given here; settings: for Induction: strain FI7847
Method: A particularly preferred embodiment of the third aspect of the invention is wherein the cells are cultured in the presence of nisA nisin or a variant nisin which can induce nisin expression. […] By adding sub-inhibitory concentrations of nisin to the growth medium, during fermentation, higher levels of the variant nisin are produced. Any variants that are less efficient as inducing agents benefit from the inclusion of nisin in the growth medium (ie a nisin induction step in the purification procedure). The amount of induction varies depending on the initial induction capacity of any particular variant (with I30W nisin A production more than doubled as a result of induction). Induction may be routinely included in the method as a means of maximising production levels. Any concerns about contamination with the wild type molecule are minimal as the nisin concentration required for induction is negligible compared to the amount of nisin variant being purified. Conveniently, the nisA nisin is a minimum amount that provides maximal induction of nisin production. This amount can be determined empirically by a person skilled in the art. Suitable nisA nisin concentrations for induction in this embodiment are from 1 nM to 500 nM, preferably 10 nM to 250 nM, more preferably 50 nM to 150 nM, most preferably 100 nM.
In some circumstances it is desirable to add nisA nisin as an inducer.

[3] = test system: sensitive L. Lactis strain MG1614; assay: Minimum inhibitory concentration (MIC); format: cell-based; settings: Table 5
[4] = test system: sensitive indicator strains; settings: work described in WO 93/20213; cited from earlier work
[5] = test system: Lactobacillus helveticus CH-1; settings: plate diffusion bioassay; plasmid-encoded nisA gene complementing nisA deficiency in host strain FI7332; cited from earlier work

| Molecule | Activity (% of wt) [1] | Induction ([2]; inducing agent at 100 ng ml^−1) | MIC [3] | also measured |
| --- | --- | --- | --- | --- |
| C=C(NC(=O)[C@@H](NC(=O)[C@H](Cc1c[nH]cn1)NC(=O)[C@@H](NC(=O)[C@H](CO)NC(=O)[C@@H]1CS[C@@H](C)[C@H]2NC(=O)[C@H](C)NC(=O)[C@H](NC(=O)[C@H](CCCCN)NC(=O)[C@H](CCSC)NC(=O)[C@H](CC(N)=O)NC(=O)[C@@H]3CS[C@@H](C)[C@@H](NC(=O)[C@H](CC(C)C)NC(=O)[C@@H]4CS[C@@H](C)[C@@H](NC(=O)[C@@H]5CSC[C@@H](NC(=O)/C(=C/C)NC(=O)[C@@H](N)[C@@H](C)CC)C(=O)N[C@@H]([C@@H](C)CC)C(=O)NC(=C)C(=O)N[C@@H](CC(C)C)C(=O)N5)C(=O)N5CCC[C@H]5C(=O)NCC(=O)N4)C(=O)NCC(=O)N[C@@H](C)C(=O)N[C@@H](CC(C)C)C(=O)N[C@@H](CCSC)C(=O)NCC(=O)N3)[C@H](C)SC[C@H](NC2=O)C(=O)N[C@@H](Cc2c[nH]cn2)C(=O)N1)[C@@H](C)CC)C(C)C)C(=O)N[C@@H](CCCCN)C(=O)O [K12L] | 10 % of wt | 81 | 130 mg/L (≈ 38.9 µM) | – |
| ΔM21: variant nisin from nisA M21 deletion (SEQ. ID. No. 41), produced by strain FI8290 (MSTKDFNLDLVSVSKKDSGASPRITSISLCTPGCKTGALMGCNKTATCHCSIHVSK; listed as Lactococcus sp.) | <1 % of wt | – | – | – |
| C=C(NC(=O)[C@@H](NC(=O)[C@H](Cc1c[nH]cn1)NC(=O)[C@H](Cc1c[nH]c2ccccc12)NC(=O)[C@H](CO)NC(=O)[C@@H]1CS[C@@H](C)[C@H]2NC(=O)[C@H](C)NC(=O)[C@H](NC(=O)[C@H](CCCCN)NC(=O)[C@H](CCSC)NC(=O)[C@H](CC(N)=O)NC(=O)[C@@H]3CS[C@@H](C)[C@@H](NC(=O)[C@H](CCCCN)NC(=O)[C@@H]4CS[C@@H](C)[C@@H](NC(=O)[C@@H]5CSC[C@@H](NC(=O)/C(=C/C)NC(=O)[C@@H](N)[C@@H](C)CC)C(=O)N[C@@H]([C@@H](C)CC)C(=O)NC(=C)C(=O)N[C@@H](CC(C)C)C(=O)N5)C(=O)N5CCC[C@H]5C(=O)NCC(=O)N4)C(=O)NCC(=O)N[C@@H](C)C(=O)N[C@@H](CC(C)C)C(=O)N[C@@H](CCSC)C(=O)NCC(=O)N3)[C@H](C)SC[C@H](NC2=O)C(=O)N[C@@H](Cc2c[nH]cn2)C(=O)N1)C(C)C)C(=O)N[C@@H](CCCCN)C(=O)O [I30W] | <1 % of wt | 41 | 160 mg/L (≈ 46.7 µM) | function as inducer of its own biosynthesis [2]: does not function well as an inducer of its own biosynthesis |
| C=C1NC(=O)[C@H]([C@@H](C)CC)NC(=O)[C@H](NC(=O)/C(=C/C)NC(=O)[C@@H](N)[C@@H](C)CC)CSC[C@@H](C(=O)N[C@H]2C(=O)N3CCC[C@H]3C(=O)NCC(=O)N[C@H](C(=O)N[C@@H](CCCCN)C(=O)N[C@H]3C(=O)NCC(=O)N[C@@H](C)C(=O)N[C@@H](CC(C)C)C(=O)N[C@@H](CCSC)C(=O)NCC(=O)N[C@H](C(=O)N[C@@H](CC(N)=O)C(=O)N[C@@H](CCSC)C(=O)N[C@@H](CCCCN)C(=O)N[C@H]4C(=O)N[C@@H](C)C(=O)N[C@H]5C(=O)N[C@@H](CS[C@H]4C)C(=O)N[C@@H](Cc4c[nH]cn4)C(=O)N[C@H](C(=O)N[C@@H](CO)C(=O)N[C@H](C(=O)N[C@@H](Cc4c[nH]cn4)C(=O)N[C@H](C(=O)N[C@@H](C)C(=O)N[C@@H](CCCCN)C(=O)O)C(C)C)[C@@H](C)CC)CS[C@H]5C)CS[C@H]3C)CS[C@H]2C)NC(=O)[C@H](CC(C)C)NC1=O [nisin A (Dha33A)] | 150 % of wt | 17 | 250 mg/L (≈ 74.5 µM) | increase over nisin A levels ([1]; cell extract from FI8198, plate diffusion bioassay): approximately 50%; zone of inhibition / inhibitory effect compared with parent strain FI5876 ([1]; cell extracts of gene-replaced strains, plate diffusion bioassay): larger than that of the parent strain; nisin activity (% of wild type), gene replacement ([1]; plate diffusion bioassay): 150 % of wild type; Induction ([2]; inducing agent at 1 mg ml^−1): 101; antimicrobial activity against sensitive indicator strains [4]: retained their antimicrobial activity; nisin activity (% of wild type), complementation [5]: 10 % of wild type |
| S5A, H27W (MSTKDFNLDLVSVSKKDSGASPRITSIALCTPGCKTGALMGCNMKTATCWCSIHVSK; listed as Lactococcus sp.) | 10 % of wt | – | – | – |
| C=C(NC(=O)[C@@H](NC(=O)[C@H](Cc1c[nH]cn1)NC(=O)[C@@H](NC(=O)[C@H](CO)NC(=O)[C@@H]1CS[C@@H](C)[C@H]2NC(=O)[C@H](C)NC(=O)[C@H](NC(=O)[C@H](CCCCN)NC(=O)[C@H](CCSC)NC(=O)[C@H](CC(N)=O)NC(=O)[C@@H]3CS[C@@H](C)[C@@H](NC(=O)[C@H](CCCCN)NC(=O)[C@@H]4CS[C@@H](C)[C@@H](NC(=O)[C@@H]5CSC[C@@H](NC(=O)/C(=C/C)NC(=O)[C@@H](N)[C@@H](C)CC)C(=O)N[C@@H]([C@@H](C)CC)C(=O)N[C@@H](C)C(=O)N[C@@H](CC(C)C)C(=O)N5)C(=O)N5CCC[C@H]5C(=O)NCC(=O)N4)C(=O)NCC(=O)N[C@@H](C)C(=O)N[C@@H](CC(C)C)C(=O)N[C@@H](CCSC)C(=O)NCC(=O)N3)[C@H](C)SC[C@H](NC2=O)C(=O)N[C@@H](Cc2c[nH]cn2)C(=O)N1)[C@@H](C)CC)C(C)C)C(=O)N[C@@H](CCCCN)C(=O)O [nisin A (Dha5A)] | 100 % of wt | 114 | 250 mg/L (≈ 74.5 µM) | nisin activity (% of wild type), gene replacement ([1]; plate diffusion bioassay): 100 % of wild type; Induction ([2]; inducing agent at 1 mg ml^−1): 107; antimicrobial activity against sensitive indicator strains [4]: retained their antimicrobial activity; nisin activity (% of wild type), complementation [5]: 25 % of wild type |
| H27K, H31K (MSTKDFNLDLVSVSKKDSGASPRITSISLCTPGCKTGALMGCNMKTATCKCSIKVSK; listed as Lactococcus sp.) | 10 % of wt | – | – | – |
| H27W (MSTKDFNLDLVSVSKKDSGASPRITSISLCTPGCKTGALMGCNMKTATCWCSIHVSK; listed as Lactococcus sp.) | <1 % of wt | – | – | – |
| H31K (MSTKDFNLDLVSVSKKDSGASPRITSISLCTPGCKTGALMGCNMKTATCHCSIKVSK; listed as Lactococcus sp.) | 25 % of wt | – | – | – |
| C=C(NC(=O)[C@@H](NC(=O)[C@H](Cc1c[nH]cn1)NC(=O)[C@@H](NC(=O)[C@H](CO)NC(=O)[C@@H]1CS[C@@H](C)[C@H]2NC(=O)[C@H](C)NC(=O)[C@H](NC(=O)[C@H](CCCCN)NC(=O)[C@H](CCSC)NC(=O)[C@H](CC(N)=O)NC(=O)[C@@H]3CS[C@@H](C)[C@@H](NC(=O)[C@H](CCCCN)NC(=O)[C@@H]4CS[C@@H](C)[C@@H](NC(=O)[C@@H]5CSC[C@@H](NC(=O)/C(=C/C)NC(=O)[C@@H](N)[C@@H](C)CC)C(=O)N[C@@H]([C@@H](C)CC)C(=O)NC(=C)C(=O)N[C@@H](CC(C)C)C(=O)N5)C(=O)N5CCC[C@H]5C(=O)NCC(=O)N4)C(=O)NCC(=O)N[C@@H](C)C(=O)N[C@@H](CC(C)C)C(=O)N[C@@H](CCSC)C(=O)NCC(=O)N3)[C@H](C)SC[C@H](NC2=O)C(=O)N[C@@H](CCCCN)C(=O)N1)[C@@H](C)CC)C(C)C)C(=O)N[C@@H](CCCCN)C(=O)O [H27K] | 100 % of wt | 86 | 130 mg/L (≈ 38.9 µM) | – |
